Columns and labels:
[1] = plasma concentration in rats after intravenous administration; type: in vivo; conditions: rat; for concentration at 5 min / concentration at 0.25 h / concentration at 0.5 h / concentration at 1 h: plasma, iv; for concentration at 5 min / concentration at 0.25 h / concentration at 0.5 h / concentration at 1 h / Concentration in plasma: i.v. 1 mg/kg; for concentration at 0.25 h: 15 min; for concentration at 0.5 h: 30 min; for concentration at 1 h: 60 min
Experimental: (§2) A physiological NaCl solution of the substance to be tested was submitted to high pressure liquid chromatography (HPLC) in order to determine its characteristic substance-specific retention time with the chosen test conditions.
(§3) The substance to be tested was diluted in vitro in rat plasma. This solution was also submitted to HPLC to see whether the characteristic peak of the substance once again appeared at the substance-specific retention time.
(§4) Blood samples were taken at time intervals of 15 minutes, from which plasma samples were prepared by centrifugation; those samples were also submitted to HPLC to see whether the characteristic peak of the substance appeared again at the substance-specific retention time.
(§5) After administration, blood samples were taken from the test animals at time intervals from 2 to maximally 360 minutes and the blood level of the compounds to be tested was determined by HPLC.

[2] = plasma concentration in rats after oral administration; type: in vivo; conditions: rat
Experimental: as §2, §3, §4, §5

[3] = plasma concentration in rats after rectal administration; type: in vivo; conditions: plasma, rat; for concentration at 0.5 h: 30 min; for concentration at 1 h: 60 min; for concentration at 2 h: 120 min; for concentration at 3 h: 180 min
thrombin = thrombin (Bos taurus, UniProt P00735); test: biochemical
[4] = test system: coagulation in human plasma; test: thrombin time (TT) in human plasma
tPA = tPA (Homo sapiens, UniProt P00750); test: inhibition of tPA, dissociation constant Ki
[5] = test system: coagulation in human plasma; test: prothrombin time (PT, Quick value) in human plasma
factor XIIa = target: T1, factor XIIa (Homo sapiens, UniProt P00748); test: inhibition of factor XIIa, dissociation constant Ki
T1 sequence (P00748 373-615 limits assumed): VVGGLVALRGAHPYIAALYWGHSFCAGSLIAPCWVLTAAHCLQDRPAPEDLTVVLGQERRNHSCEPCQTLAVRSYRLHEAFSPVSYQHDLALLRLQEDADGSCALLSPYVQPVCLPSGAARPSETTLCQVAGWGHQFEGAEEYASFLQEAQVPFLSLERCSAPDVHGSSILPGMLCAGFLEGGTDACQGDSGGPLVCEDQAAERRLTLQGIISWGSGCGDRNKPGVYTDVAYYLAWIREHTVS

plasma kallikrein = plasma kallikrein (Homo sapiens, UniProt P03952); test: inhibition of plasma kallikrein, dissociation constant Ki
glandular kallikrein = glandular kallikrein (Sus scrofa, UniProt P00752); test: inhibition of glandular kallikrein, dissociation constant Ki
[6] = test system: coagulation in human plasma; test: activated partial thromboplastin time (aPTT) in human plasma
in vivo = conditions: rat, intraduodenal 100 mg/kg; for Concentration in plasma: hydrochloride, 100 mg/kg
[7] = test system: coagulation in rat plasma; test: thrombin time in rat plasma after rectal application; type: in vivo
Experimental: (§1) After rectal administration of the compounds to be tested, the anticoagulant effect was determined in the plasma of experimental animals.

[8] = test system: coagulation in rat plasma; test: aPTT in rat plasma after rectal application; type: in vivo
Experimental: as §1

[9] = concentration in rat plasma in the anticoagulant study after rectal application; type: in vivo; conditions: for concentration at 0.5 h / concentration at 1 h / concentration at 2 h / concentration at 3 h: plasma; for concentration at 0.5 h: 30 min; for concentration at 1 h: 60 min; for concentration at 2 h: 120 min; for concentration at 3 h: 180 min; for Concentration in plasma: 0 min
plasmin = plasmin (Homo sapiens, UniProt P00747); test: inhibition of plasmin, dissociation constant Ki
trypsin = target: T2, trypsin (Bos taurus, UniProt P00760); test: inhibition of trypsin, dissociation constant Ki; type: biochemical; parameters: thrombin and the related enzymes trypsin, plasmin, factor Xa, factor XIIa; conditions: Table 1; read-out: Ki, Trypsin
T2 sequence (P00760 24-246): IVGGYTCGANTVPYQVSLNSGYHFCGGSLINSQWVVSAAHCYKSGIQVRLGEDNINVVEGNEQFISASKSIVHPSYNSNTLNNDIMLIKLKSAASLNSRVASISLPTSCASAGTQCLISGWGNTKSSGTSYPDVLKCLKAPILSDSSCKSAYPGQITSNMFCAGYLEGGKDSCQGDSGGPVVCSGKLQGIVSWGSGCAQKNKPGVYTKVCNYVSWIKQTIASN
Experimental: The biological activity of the compounds of the present invention was determined in vitro as well as in vivo.

Sequence of tPA (P00750 36-562): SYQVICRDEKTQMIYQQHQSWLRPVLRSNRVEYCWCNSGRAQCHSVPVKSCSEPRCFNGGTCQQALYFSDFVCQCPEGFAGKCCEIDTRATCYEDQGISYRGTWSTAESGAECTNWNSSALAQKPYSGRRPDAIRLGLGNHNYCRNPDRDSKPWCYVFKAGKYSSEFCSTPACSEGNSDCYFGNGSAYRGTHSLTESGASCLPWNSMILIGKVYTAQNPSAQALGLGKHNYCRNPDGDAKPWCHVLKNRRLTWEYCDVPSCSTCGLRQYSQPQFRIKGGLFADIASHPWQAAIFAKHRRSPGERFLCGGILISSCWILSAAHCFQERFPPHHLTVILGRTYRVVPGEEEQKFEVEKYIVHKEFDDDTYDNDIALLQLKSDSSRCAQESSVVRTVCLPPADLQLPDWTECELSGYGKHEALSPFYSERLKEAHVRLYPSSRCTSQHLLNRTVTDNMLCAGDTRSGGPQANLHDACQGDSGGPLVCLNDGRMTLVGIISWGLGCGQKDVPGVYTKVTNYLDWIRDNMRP
Sequence of glandular kallikrein (P00752 8-246): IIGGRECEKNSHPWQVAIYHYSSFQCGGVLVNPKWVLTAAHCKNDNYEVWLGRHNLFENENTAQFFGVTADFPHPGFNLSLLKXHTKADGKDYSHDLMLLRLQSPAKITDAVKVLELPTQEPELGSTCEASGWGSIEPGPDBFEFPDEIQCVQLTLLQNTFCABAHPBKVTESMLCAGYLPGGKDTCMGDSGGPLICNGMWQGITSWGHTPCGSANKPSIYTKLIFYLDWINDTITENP
Sequence of plasma kallikrein (P03952 391-638 limits assumed, species assumed): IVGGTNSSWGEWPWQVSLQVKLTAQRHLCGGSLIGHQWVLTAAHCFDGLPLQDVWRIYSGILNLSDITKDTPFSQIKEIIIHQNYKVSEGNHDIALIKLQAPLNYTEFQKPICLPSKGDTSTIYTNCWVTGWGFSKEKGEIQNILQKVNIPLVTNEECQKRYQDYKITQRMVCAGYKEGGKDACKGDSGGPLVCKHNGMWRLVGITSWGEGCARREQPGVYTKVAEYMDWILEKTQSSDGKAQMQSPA
Sequence of plasma kallikrein (P03952 20-390 partner limits assumed, species assumed): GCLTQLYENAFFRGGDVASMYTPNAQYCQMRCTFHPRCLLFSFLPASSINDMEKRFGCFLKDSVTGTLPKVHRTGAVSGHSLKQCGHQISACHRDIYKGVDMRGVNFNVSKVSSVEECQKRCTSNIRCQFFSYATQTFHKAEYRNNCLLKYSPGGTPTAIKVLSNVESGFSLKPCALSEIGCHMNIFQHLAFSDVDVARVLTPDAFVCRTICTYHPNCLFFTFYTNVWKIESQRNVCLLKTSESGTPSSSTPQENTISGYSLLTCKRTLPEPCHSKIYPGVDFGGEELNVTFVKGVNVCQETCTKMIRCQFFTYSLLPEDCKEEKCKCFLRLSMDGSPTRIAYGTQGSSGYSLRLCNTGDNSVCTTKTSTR
Sequence of plasmin (P00747 581-810 limits assumed): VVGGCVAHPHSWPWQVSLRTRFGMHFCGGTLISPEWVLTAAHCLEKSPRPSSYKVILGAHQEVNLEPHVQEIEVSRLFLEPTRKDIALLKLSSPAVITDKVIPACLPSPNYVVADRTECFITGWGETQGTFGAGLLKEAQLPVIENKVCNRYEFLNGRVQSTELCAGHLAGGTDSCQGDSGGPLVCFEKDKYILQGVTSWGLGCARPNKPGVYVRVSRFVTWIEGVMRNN
Sequence of plasmin (P00747 97-580 partner limits assumed): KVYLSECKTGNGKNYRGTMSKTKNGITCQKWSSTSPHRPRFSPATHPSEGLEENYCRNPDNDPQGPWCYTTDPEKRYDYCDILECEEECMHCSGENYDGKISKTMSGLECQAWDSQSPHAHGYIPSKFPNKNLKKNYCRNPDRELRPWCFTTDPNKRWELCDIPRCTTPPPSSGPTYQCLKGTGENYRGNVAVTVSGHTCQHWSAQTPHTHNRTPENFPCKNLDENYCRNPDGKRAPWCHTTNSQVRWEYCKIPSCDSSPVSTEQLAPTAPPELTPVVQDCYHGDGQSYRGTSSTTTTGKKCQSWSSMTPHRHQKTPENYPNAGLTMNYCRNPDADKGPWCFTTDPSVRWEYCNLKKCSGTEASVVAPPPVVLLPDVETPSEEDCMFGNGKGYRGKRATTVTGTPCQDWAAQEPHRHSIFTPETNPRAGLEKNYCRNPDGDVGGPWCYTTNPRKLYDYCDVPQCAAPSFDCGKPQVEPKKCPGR

SMILES: CCOC(=O)N1CCN(C(=O)C(Cc2cccc(C(=N)N)c2)NS(=O)(=O)c2ccc3ccccc3c2)CC1 (racemic) [X, N-α-(2-naphthylsulfonyl)-(D,L)-3-amidinophenylalanine-4-ethoxycarbonyl piperazide, reference compound]
- concentration at 5 min [1]: 812 ng/mL
- concentration at 0.25 h [1]: 169 ng/mL
- concentration at 0.5 h [1]: 40 ng/mL
- concentration at 1 h [1]: 8 ng/mL
- Concentration in plasma ([1]; 120 min): 0 ng/mL
- Concentration in plasma ([1]; 180 min): 0 ng/mL
- concentration at 0.5 h ([2]; plasma, oral 50 mg/kg, 30 min): 33 ng/mL
- concentration at 1 h ([2]; plasma, oral 50 mg/kg, 60 min): 10 ng/mL
- Concentration in plasma ([2]; oral 50 mg/kg, 120 min): 0 ng/mL
- Concentration in plasma ([2]; oral 50 mg/kg, 180 min): 0 ng/mL
- Concentration in plasma ([2]; oral 50 mg/kg, 240 min): 0 ng/mL
- Concentration in plasma ([2]; oral 50 mg/kg, 300 min): 0 ng/mL
- concentration at 0.5 h ([3]; rectal 100 mg/kg): 3260 ng/mL
- concentration at 1 h ([3]; rectal 100 mg/kg): 2370 ng/mL
- concentration at 2 h ([3]; rectal 100 mg/kg): 1800 ng/mL
- concentration at 3 h ([3]; rectal 100 mg/kg): 898 ng/mL
- concentration at 4 h ([3]; rectal 100 mg/kg, 240 min): 626 ng/mL
- concentration at 5 h ([3]; rectal 100 mg/kg, 300 min): 592 ng/mL
- concentration at 6 h ([3]; rectal 100 mg/kg, 360 min): 448 ng/mL
- Ki (thrombin): 0.67 µM
- Concentr. to double the Thrombin time [4]: 4.1 µmol/L
- Ki (tPA): 370 µM
- Concentr. to double the Prothrombin time [5]: 45 µmol/L
- Ki (factor XIIa): 210 µM
- Ki (plasma kallikrein): 30 µM
- Ki (glandular kallikrein): > 1000 µM
- Concentr. to double the aPTT [6]: 20 µmol/L

SMILES: CS(=O)(=O)N1CCN(C(=O)[C@H](Cc2cccc(C(=N)N)c2)NS(=O)(=O)c2ccc3ccccc3c2)CC1.Cl [Compound 5, Nα-(2-naphthylsulfonyl)-3-amidino-(L)-phenylalanine-4methylsulfonylpiperazide hydrochloride]
- concentration at 5 min [1]: 879 ng/mL
- concentration at 0.25 h [1]: 367 ng/mL
- concentration at 0.5 h [1]: 151 ng/mL
- concentration at 1 h [1]: 50 ng/mL
- elimination in words ([1]; i.v.): eliminated at comparable rate
- Concentration in plasma ([1]; 120 min): 0 ng/mL
- Concentration in plasma ([1]; 180 min): 0 ng/mL
- resorption in words ([2]; oral): only slightly resorbed
- concentration at 0.5 h ([3]; rectal 20 mg/kg): 1650 ng/mL
- concentration at 1 h ([3]; rectal 20 mg/kg): 958 ng/mL
- concentration at 2 h ([3]; rectal 20 mg/kg): 299 ng/mL
- concentration at 3 h ([3]; rectal 20 mg/kg): 192 ng/mL
- concentration at 3 h (in vivo; plasma, 180 min): 297 ng/mL
- concentration at 4 h (in vivo; plasma, 240 min): 530 ng/mL
- concentration at 5 h (in vivo; plasma, 300 min): 137 ng/mL
- concentration at 6 h (in vivo; plasma, 360 min): 119 ng/mL
- Concentration in plasma (in vivo; 30 min): 8744 ng/mL
- Concentration in plasma (in vivo; 30 min, listed as 5*): 1576 ng/mL
- Concentration in plasma (in vivo; 60 min): 9314 ng/mL
- Concentration in plasma (in vivo; 60 min, listed as 5*): 1900 ng/mL
- Concentration in plasma (in vivo; 120 min): 8612 ng/mL
- Concentration in plasma (in vivo; 120 min, listed as 5*): 1763 ng/mL
- Clotting time, Thrombin time ([7]; rectal 5 mg/kg, 0 min): 51.5 s
- Clotting time, Thrombin time ([7]; rectal 5 mg/kg, 30 min): > 300 s
- Clotting time, Thrombin time ([7]; rectal 5 mg/kg, 60 min): 255 s
- Clotting time, Thrombin time ([7]; rectal 5 mg/kg, 120 min): 137.5 s
- Clotting time, Thrombin time ([7]; rectal 5 mg/kg, 180 min): 95 s
- Clotting time, Thrombin time ([7]; rectal 20 mg/kg, 0 min): 153 s
- Clotting time, Thrombin time ([7]; rectal 20 mg/kg, 30 min): > 300 s
- Clotting time, Thrombin time ([7]; rectal 20 mg/kg, 60 min): > 300 s
- Clotting time, Thrombin time ([7]; rectal 20 mg/kg, 120 min): > 300 s
- Clotting time, Thrombin time ([7]; rectal 20 mg/kg, 180 min): > 300 s
- Clotting time, aPTT ([8]; rectal 5 mg/kg, 0 min): 21.2 s
- Clotting time, aPTT ([8]; rectal 5 mg/kg, 30 min): 34.5 s
- Clotting time, aPTT ([8]; rectal 5 mg/kg, 60 min): 30.5 s
- Clotting time, aPTT ([8]; rectal 5 mg/kg, 120 min): 27.5 s
- Clotting time, aPTT ([8]; rectal 5 mg/kg, 180 min): 25.3 s
- Clotting time, aPTT ([8]; rectal 20 mg/kg, 0 min): 22 s
- Clotting time, aPTT ([8]; rectal 20 mg/kg, 30 min): 65 s
- Clotting time, aPTT ([8]; rectal 20 mg/kg, 60 min): 62.5 s
- Clotting time, aPTT ([8]; rectal 20 mg/kg, 120 min): 36 s
- Clotting time, aPTT ([8]; rectal 20 mg/kg, 180 min): 29.7 s
- concentration at 0.5 h ([9]; rectal 5 mg/kg): 168 ng/mL
- concentration at 1 h ([9]; rectal 5 mg/kg): 65 ng/mL
- concentration at 2 h ([9]; rectal 5 mg/kg): 82 ng/mL
- concentration at 3 h ([9]; rectal 5 mg/kg): 10 ng/mL
- concentration at 0.5 h ([9]; rectal 20 mg/kg): 1570 ng/mL
- concentration at 1 h ([9]; rectal 20 mg/kg): 983 ng/mL
- concentration at 2 h ([9]; rectal 20 mg/kg): 380 ng/mL
- concentration at 3 h ([9]; rectal 20 mg/kg): 195 ng/mL
- Concentration in plasma ([9]; rectal 5 mg/kg): 0 ng/mL
- Concentration in plasma ([9]; rectal 20 mg/kg): 0 ng/mL
- Concentr. to double the Thrombin time [4]: 0.034 µmol/L
- concentration to double the TT [4]: less than 10^-7 mol/1
- Ki (tPA): 190 µM
- Ki (plasmin): 9 µM
- Concentr. to double the Prothrombin time [5]: 0.39 µmol/L
- concentration to double the PT [5]: ≤ 1 μmol/1
- Ki (factor XIIa): 52 µM
- Ki (plasma kallikrein): 9.2 µM
- Ki (glandular kallikrein): > 1000 µM
- Concentr. to double the aPTT [6]: 0.26 µmol/L
- concentration to double the aPTT [6]: ≤ 1 μmol/1
- Ki (trypsin): 0.067 µM
